Holding throughout (type): in vitro ADME
Data set [1] concerns the target T1, human recombinant CYP3A4 (Homo sapiens, UniProt P08684).
T1 construct: purchased Gentest Corp; host or cells: insect cells (baculovirus)
Description: Vandetanib oxidation by human recombinant CYP3A4 (Supersomes). The method, then: (§1) The purity of all chemicals met the standards of American Chemical Society, unless noted otherwise. […] Animals were placed in cages in temperature- and humidity-controlled rooms, acclimatized for five days and maintained at 22 °C with a 12 h light/dark period. Standardized diet and water were provided ad libitum. Rats, mice and rabbits used to prepare microsomal fraction from untreated animals were sacrificed by cervical dislocation, livers snap-frozen in liquid nitrogen and stored at −80 °C until further processing (see below). For controls, livers of the animals were removed immediately after sacrifice, divided into small pieces (~1 g), snap-frozen in liquid nitrogen, and stored at −80 °C until isolation of microsomal fractions. Pooled microsomes were used for all in vitro experiments in the present study and prepared from 10 livers/group for all animal species following established protocols. Microsomal fractions were stored at −80 °C until analysis. Protein concentrations in the microsomal fractions were assessed using the bicinchoninic acid protein assay with bovine serum albumin as a standard. […] Microsomes from livers of twelve human donors were obtained from Gentest Corp. (Woburn, MA, USA) (cat. no. HG43–1, HG103, HG74, HG93, HG24, HG27, HG23, HG32, HK31, HK34, HG03, and HG42). […]

For data set [2], the target named is T2, human recombinant CYP2D6 (Homo sapiens, UniProt P10635).
T2 construct: purchased Gentest Corp; host or cells: insect cells (baculovirus)
T2 sequence (P10635 whole entry): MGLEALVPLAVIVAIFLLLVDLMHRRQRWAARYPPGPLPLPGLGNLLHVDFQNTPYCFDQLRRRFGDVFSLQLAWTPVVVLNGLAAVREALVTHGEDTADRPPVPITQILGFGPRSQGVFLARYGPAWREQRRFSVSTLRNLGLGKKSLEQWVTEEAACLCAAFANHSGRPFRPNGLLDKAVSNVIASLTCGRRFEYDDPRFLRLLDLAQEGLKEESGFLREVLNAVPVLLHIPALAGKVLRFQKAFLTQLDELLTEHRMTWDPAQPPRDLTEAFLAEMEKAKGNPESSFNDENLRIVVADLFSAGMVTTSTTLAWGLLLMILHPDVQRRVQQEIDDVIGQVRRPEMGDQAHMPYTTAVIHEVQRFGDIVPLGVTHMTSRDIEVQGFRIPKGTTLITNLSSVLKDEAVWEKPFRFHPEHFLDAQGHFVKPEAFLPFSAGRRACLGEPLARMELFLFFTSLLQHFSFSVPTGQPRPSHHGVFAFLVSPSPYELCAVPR
As to the kind of experiment: Vandetanib oxidation by human recombinant CYP2D6 (Supersomes). The method, then: as §1

For data set [3], the system named is CYP2D6, 3A5, 1A1 and 2C8. As to the kind of experiment: Contributions of other CYPs to N-desmethylvandetanib formation in human livers. As to conditions: with cytochrome b5. The method, then:
The contributions of these enzymes were calculated by relative activity factor because the activities of CYPs in Supersomes™ also need to be considered in addition to the relative contents of CYPs in the livers. […] Of CYPs in human liver, CYP3A4 is the major enzyme present in this human organ (~30% of the CYP hepatic complement), followed by CYP2C9 and 1A2 (~15% and ~13%, respectively), while CYP2C19, 2E1 2A6, 2D6, 2C8 and 3A5 are present in human liver at levels that range from ~2.5% to ~8.5% (see Reference for an overview).

In data set [4] the test system is human recombinant CYP2C8. As to the kind of experiment: Vandetanib oxidation by human recombinant CYP2C8 (Supersomes). The method, then: Vandetanib was from LC Laboratories (Woburn, MA, USA). Ketoconazole, NADPH, methimazol and other chemicals were all purchased from Sigma-Aldrich (St. Louis, MO, USA). The purity of all chemicals met the standards of American Chemical Society, unless noted otherwise. All animal experiments were conducted in accordance with the Regulations for the Care and Use of Laboratory Animals (311/1997, Ministry of Agriculture, Czech Republic), which follows the Declaration of Helsinki. Male Wistar rats (~125–150 g; AnLab, Czech Republic), male C57BL/6 mice ([…]; CXR Bioscience Ltd., Dundee, UK), and male New Zealand rabbits (2.5–3 kg; AnLab, Czech Republic) were employed as animal models. Animals were placed in cages in temperature- and humidity-controlled rooms, acclimatized for five days and maintained at 22 °C with a 12 h light/dark period. Standardized diet and water were provided ad libitum. Rats, mice and rabbits used to prepare microsomal fraction from untreated animals were sacrificed by cervical dislocation, livers snap-frozen in liquid nitrogen and stored at −80 °C until further processing (see below). […] Protein concentrations in the microsomal fractions were assessed using the bicinchoninic acid protein assay with bovine serum albumin as a standard. […]

[5] abbreviates: without consideration of cytochrome b5.

T1 sequence (P08684 2-503 limits assumed): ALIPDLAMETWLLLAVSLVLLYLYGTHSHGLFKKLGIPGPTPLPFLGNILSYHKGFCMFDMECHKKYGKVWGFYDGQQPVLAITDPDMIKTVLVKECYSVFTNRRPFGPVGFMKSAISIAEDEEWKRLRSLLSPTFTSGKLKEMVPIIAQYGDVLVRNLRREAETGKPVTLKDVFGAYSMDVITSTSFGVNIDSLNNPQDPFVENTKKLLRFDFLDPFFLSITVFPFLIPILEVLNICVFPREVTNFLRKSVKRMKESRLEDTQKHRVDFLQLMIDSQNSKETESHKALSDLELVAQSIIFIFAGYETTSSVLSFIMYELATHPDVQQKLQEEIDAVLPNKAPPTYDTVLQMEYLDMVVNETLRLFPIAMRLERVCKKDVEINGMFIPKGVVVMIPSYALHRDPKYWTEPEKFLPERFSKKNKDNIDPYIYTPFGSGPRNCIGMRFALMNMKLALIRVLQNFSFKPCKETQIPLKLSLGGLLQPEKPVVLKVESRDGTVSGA

Take `COc1cc2c(Nc3ccc(Br)cc3F)ncnc2cc1OCC1CCNCC1` [N-desmethylvandetanib]: the “contribution of CYP3A4 to N-desmethylvandetanib formation in human liver” value in data set [1] (with cytochrome b5) was ~ 99.6%; in data set [1] (setting [5]), ~ 97.7%. Moreover, the “effect of cytochrome b5 on N-desmethylvandetanib formation” value in data set [2] (CYP2D6 with vs without cytochrome b5) was “essentially no such effect”. Besides, in data set [2] (setting [5]), the “contribution of CYP2D6 to N-desmethylvandetanib formation in human liver” value is given as ~ 1.7%. In addition, in data set [3], the “contribution in total of other human CYPs (CYP2D6, 3A5, 1A1 and 2C8) to N-desmethylvandetanib formation” value was ~ 0.4%. Also, the “fold increase of N-desmethylvandetanib formation by cytochrome b5” value in data set [4] (CYP2C8 with vs without cytochrome b5) was 1.6 fold. Further, the “contribution of CYP2C8 to N-desmethylvandetanib formation in human liver” value in data set [4] (setting [5]) is listed as less than 0.3%.

The values above are taken from PMC6679423 (International Journal of Molecular Sciences, 2019).
